Test results published in US20130101527A1, “METHODS, COMPOUNDS AND PHARMACEUTICAL COMPOSITIONS FOR TREATING NEUROLOGICAL DISORDERS” (priority 2011, published 2013).

Legend:
[1] = test system: Spontaneous Brain Activity in Healthy Adults; experiment: MEG recordings of spontaneous activity, spectral analysis and ICA localization before and after self-administration of 1-octanol; assay type: in vivo, human
Description: (§1) The database comprises 29 healthy adults from 25-52 years of age (12 women and 17 men).
Spontaneous activity was recorded using a 275 channel (CTF) MEG. Six 7-min recordings were made with the eyes closed. One recording was made before self-administration of 1-Octanol. The others were made at 15, 30, 60, 90 and 120 min after.
A multi-taper approach, which provides reduced-variance calculations of frequency, was used to generate frequency spectra from each set of recordings. Changes in the power spectrum after octanol was determined by first calculating the mean spectra energy (MSE) in 2 Hz frequency bands starting at 2.5 Hz. Logarithmic transformation was applied to the power data and then the mean spectral energy (MSE) was calculated for each band before and after octanol administration. The difference in MSE before and after octanol was then calculated for each participant and the grand mean calculated (FIG. 3).
(§2) Octanol is a straight chain fatty alcohol with 8 carbon atoms CH3(CH2)7OH, and was formulated in an oral mucosal delivery format with appropriate organoleptic characteristics. It was self-administered at 0.1 mg/kg. Participants were instructed to use the spray as they would a breathe spray.
Independent component analysis (ICA) was carried out on the sensor data using the Infomax EEGLab algorithm. The magnetic field described by the ICs was localized onto a volumetric source space constructed from a population-averaged MRI using a recursive weighted minimum norm algorithm.

healthy adults = experiment: Seven-scale questionnaire before and after octanol administration; assay type: in vivo, human; conditions: 0.1 mg/kg, questionnaire before, 5-10 min and 120 min after
Description: as §1, §2
A seven-scale questionnaire was used before and at 5-10 minutes and 120 minutes, respectively, after octanol administration to examine the level of relaxation, concentration, worry, sleepiness, stress, pain and the octanol taste.

[2] = test system: Spontaneous Brain Activity in Healthy Adults; experiment: MEG recordings of spontaneous activity, spectral analysis and ICA localization before and after self-administration of 1-octanol; assay type: in vivo, human; conditions: all subjects, five times after octanol (grand mean, s.e.m), FIG. 2
GABAA Receptors = conditions: Kurata et al., Mol Pharmacol. 1999, cited from earlier work
[3] = test system: T-type (Cav3.1) calcium channels; conditions: in vitro; cited from earlier work
harmaline-induced tremor = conditions: cited from earlier work
[4] = test system: patients with essential tremor; conditions: cited from earlier work
TCD in an animal model = conditions: cited from earlier work
[5] = cited from earlier work
saliva-amylase = target: T1, saliva-amylase (Homo sapiens, UniProt P0DUB6); conditions: cited from earlier work
T1 sequence (P0DUB6 16-511): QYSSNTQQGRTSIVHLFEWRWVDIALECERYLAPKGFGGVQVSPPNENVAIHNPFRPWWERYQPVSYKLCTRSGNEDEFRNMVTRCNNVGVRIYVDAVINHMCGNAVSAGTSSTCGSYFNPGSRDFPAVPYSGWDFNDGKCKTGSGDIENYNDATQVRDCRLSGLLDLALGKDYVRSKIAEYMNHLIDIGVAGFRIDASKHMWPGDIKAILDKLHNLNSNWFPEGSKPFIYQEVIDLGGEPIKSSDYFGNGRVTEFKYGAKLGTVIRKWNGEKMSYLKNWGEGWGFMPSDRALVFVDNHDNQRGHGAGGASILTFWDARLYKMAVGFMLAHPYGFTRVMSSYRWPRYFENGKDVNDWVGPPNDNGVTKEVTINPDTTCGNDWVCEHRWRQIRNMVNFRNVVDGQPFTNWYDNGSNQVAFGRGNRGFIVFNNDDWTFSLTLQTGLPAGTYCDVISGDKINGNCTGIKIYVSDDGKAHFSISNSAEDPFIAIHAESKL

[6] = example subject with low frequency peaks, FIG. 5
[7] = healthy adults, 0.1 mg/kg self-administered oral mucosal spray, MEG

CCCCCCCCO [Example 1-octanol, 1-octanol]
number of ICA components in the alpha range ([1]; after octanol administration, FIG. 6): increased | Localization of the alpha rhythms to the posterior part of the brain (ICA) ([1]; before and 90 minutes after octanol, FIG. 4): not affected | alpha range peak (8.5-10.4 Hz) [1, 6]: increased | delta range peaks (2.5-4.4 Hz) [1, 6]: reduced | abnormal, delta range activity [1, 7]: reducing | normal, alpha range activity [1, 7]: increases | beta range activity ([1]; healthy subjects, MEG): did not promote a significant increase | lower alpha band power ([1]; healthy subjects, MEG): significantly increased | power spectra in the low alpha range ([1]; most of the subjects, FIG. 1): increase and broadening | power at lower frequencies ([1]; most subjects, FIG. 3): no change | low frequency peaks ([1]; some subjects, FIG. 7): not affected | gamma range activity ([1]; some subjects, MEG): increase | higher theta range activity ([1]; some subjects, MEG): tendency for potentiating | ICA components with delta range peaks ([1]; two hours after octanol administration, FIG. 6): no components | general, self-reported measures of wellness (healthy adults): no effect | Difference in Mean Spectral Energy, alpha range [2]: clear increase | Difference in Mean Spectral Energy, delta range [2]: decrease | low doses at which octanol is a slight allosteric potentiator of GABA (GABAA Receptors): 1-10 μm | action on GABA at a higher dose (GABAA Receptors; higher dose): allosteric inhibitor | inferior olivary oscillations [3]: reduces | low threshold calcium currents in thalamic and inferior olivary neurons [3]: reversibly reduces | harmaline-induced tremor (harmaline-induced tremor): prevents | tremor in patients with essential tremor [4]: reduce tremor | effect in TCD in an animal model (TCD in an animal model): effective | accepted daily intake ([5]; as flavoring agent in food and cosmetics, FDA and Council of Europe): 1 mg/kg | liver toxicity ([5]; higher dosages): associated with liver toxicity

OC[C@H]1O[C@@H]2O[C@H]3[C@H](O)[C@@H](O)[C@@H](O[C@H]4[C@H](O)[C@@H](O)[C@@H](O[C@H]5[C@H](O)[C@@H](O)[C@@H](O[C@H]6[C@H](O)[C@@H](O)[C@@H](O[C@H]7[C@H](O)[C@@H](O)[C@@H](O[C@H]8[C@H](O)[C@@H](O)[C@@H](O[C@H]9[C@H](O)[C@@H](O)[C@@H](O[C@H]1[C@H](O)[C@H]2O)O[C@@H]9CO)O[C@@H]8CO)O[C@@H]7CO)O[C@@H]6CO)O[C@@H]5CO)O[C@@H]4CO)O[C@@H]3CO [γ-CD, γ-cyclodextrin]
susceptibility to saliva-amylase degradation (saliva-amylase): highly susceptible
